Key:
potassium arsenate = compound: O=[As]([O-])(O)O.[K+] [potassium arsenate]; test: thermal stability z-score vs DMSO; higher = more thermally stabilized by treatment; settings: HeLa; arsenate concentration 1 mM
Method: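 Cellular thermal proteome profiling in HeLa cells treated with 1 mM arsenate for 1 h (DMSO pretreatment), heated to ten temperatures (37-66.3 °C). Soluble protein was quantified by TMT mass spectrometry relative to DMSO controls; the thermal stability score was transformed to a z-score; mean of n = 3 experiments.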

lipoamide = compound: NC(=O)CCCCC1CCSS1 [lipoamide]; test: as above; settings: HeLa, lipoamide concentration 100 µM
Method: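 Cellular thermal proteome profiling in HeLa cells. Cells were treated with 100 µM lipoamide for 1 h, with or without 1 mM arsenate for a further 1 h, then heated to ten temperatures (37-66.3 °C), and soluble protein was quantified by TMT mass spectrometry relative to 0.1% DMSO controls. The thermal stability score (sum of log2 fold changes minus the abundance score) was transformed to a z-score; mean of n = 3 experiments.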

[1] = arsenate co-treatment: 1 mM arsenate 1 h
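Note: each temperature applied for 3 min, abundance score taken as mean log2 fold change at the two lowest temperatures, z-score obtained by mean subtraction and division by SD.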

Target: KLC1 (UniProt Q07866)
- thermal stability z-score (potassium arsenate): -0.0989
- thermal stability z-score (lipoamide; [1]): -0.0381
- thermal stability z-score (lipoamide; arsenate co-treatment: none): -0.129

Target: KLC2 (UniProt Q9H0B6)
- thermal stability z-score (potassium arsenate): 0.557
- thermal stability z-score (lipoamide; [1]): -0.0443
- thermal stability z-score (lipoamide; arsenate co-treatment: none): 0.117

Target: KLC4 (UniProt Q9NSK0)
- thermal stability z-score (potassium arsenate): 0.297
- thermal stability z-score (lipoamide; [1]): -1.48
- thermal stability z-score (lipoamide; arsenate co-treatment: none): 0.259

Target: KLF4 (UniProt O43474)
Sequence of UniProt O43474 (O43474 whole entry): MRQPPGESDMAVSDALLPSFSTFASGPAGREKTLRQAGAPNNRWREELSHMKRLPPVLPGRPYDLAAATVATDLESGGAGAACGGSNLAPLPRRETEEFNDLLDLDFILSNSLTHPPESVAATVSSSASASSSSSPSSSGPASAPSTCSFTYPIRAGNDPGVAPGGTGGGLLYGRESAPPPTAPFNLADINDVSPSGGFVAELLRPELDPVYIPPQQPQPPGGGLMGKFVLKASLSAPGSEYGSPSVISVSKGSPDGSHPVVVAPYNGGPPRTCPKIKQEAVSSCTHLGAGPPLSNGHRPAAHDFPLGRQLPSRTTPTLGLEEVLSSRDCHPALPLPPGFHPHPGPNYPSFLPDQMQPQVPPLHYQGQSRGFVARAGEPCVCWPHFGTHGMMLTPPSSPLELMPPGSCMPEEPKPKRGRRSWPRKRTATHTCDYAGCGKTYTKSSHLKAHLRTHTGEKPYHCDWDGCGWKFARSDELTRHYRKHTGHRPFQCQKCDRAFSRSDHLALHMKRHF
- thermal stability z-score (potassium arsenate): -1.07
- thermal stability z-score (lipoamide; [1]): -0.157
- thermal stability z-score (lipoamide; arsenate co-treatment: none): -0.548

Target: KLF16 (UniProt Q9BXK1)
Sequence of UniProt Q9BXK1 (Q9BXK1 whole entry): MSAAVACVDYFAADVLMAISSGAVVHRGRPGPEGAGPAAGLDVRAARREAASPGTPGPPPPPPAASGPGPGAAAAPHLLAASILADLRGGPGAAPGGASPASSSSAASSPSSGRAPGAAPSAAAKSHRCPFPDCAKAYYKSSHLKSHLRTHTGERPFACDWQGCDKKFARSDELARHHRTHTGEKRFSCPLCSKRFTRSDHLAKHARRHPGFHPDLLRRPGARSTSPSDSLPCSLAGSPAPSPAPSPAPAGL
- thermal stability z-score (potassium arsenate): 0.778
- thermal stability z-score (lipoamide; [1]): -0.384
- thermal stability z-score (lipoamide; arsenate co-treatment: none): 0.0662

Target: KLHDC3 (UniProt Q9BQ90)
Sequence of UniProt Q9BQ90 (Q9BQ90 whole entry): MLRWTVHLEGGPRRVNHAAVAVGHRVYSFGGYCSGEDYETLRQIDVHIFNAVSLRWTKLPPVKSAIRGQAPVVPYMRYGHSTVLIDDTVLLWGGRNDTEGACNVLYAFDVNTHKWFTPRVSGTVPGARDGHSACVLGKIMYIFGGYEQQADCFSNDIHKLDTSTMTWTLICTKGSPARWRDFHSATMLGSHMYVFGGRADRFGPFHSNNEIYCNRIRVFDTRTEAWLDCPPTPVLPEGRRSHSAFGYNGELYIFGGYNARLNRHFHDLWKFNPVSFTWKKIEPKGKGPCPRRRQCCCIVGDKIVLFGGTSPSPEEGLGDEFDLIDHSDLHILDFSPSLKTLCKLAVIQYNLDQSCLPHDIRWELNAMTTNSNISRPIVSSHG
- thermal stability z-score (potassium arsenate): 1.05
- thermal stability z-score (lipoamide; [1]): 0.45
- thermal stability z-score (lipoamide; arsenate co-treatment: none): -0.351

Target: KLHDC4 (UniProt Q8TBB5)
Sequence of UniProt Q8TBB5 (Q8TBB5 whole entry): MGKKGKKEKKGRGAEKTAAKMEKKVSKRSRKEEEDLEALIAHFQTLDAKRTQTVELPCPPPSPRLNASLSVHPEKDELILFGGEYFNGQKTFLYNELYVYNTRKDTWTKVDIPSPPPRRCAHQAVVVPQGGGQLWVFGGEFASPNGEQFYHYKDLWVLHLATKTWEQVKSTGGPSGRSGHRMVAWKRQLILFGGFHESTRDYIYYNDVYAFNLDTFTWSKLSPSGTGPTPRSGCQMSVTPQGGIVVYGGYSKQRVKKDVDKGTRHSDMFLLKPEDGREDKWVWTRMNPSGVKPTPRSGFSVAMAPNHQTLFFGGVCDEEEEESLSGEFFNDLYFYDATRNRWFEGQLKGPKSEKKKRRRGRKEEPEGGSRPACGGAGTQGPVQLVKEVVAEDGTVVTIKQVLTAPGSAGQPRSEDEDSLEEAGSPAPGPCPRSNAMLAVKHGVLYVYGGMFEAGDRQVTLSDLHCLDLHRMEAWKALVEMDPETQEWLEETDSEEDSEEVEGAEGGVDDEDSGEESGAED
- thermal stability z-score (potassium arsenate): -0.251
- thermal stability z-score (lipoamide; [1]): -0.895
- thermal stability z-score (lipoamide; arsenate co-treatment: none): -0.0677

Target: KLHL11 (UniProt Q9NVR0)
- thermal stability z-score (potassium arsenate): -0.421
- thermal stability z-score (lipoamide; [1]): 0.651
- thermal stability z-score (lipoamide; arsenate co-treatment: none): -0.0811

Target: KLHL13 (UniProt Q9P2N7)
Sequence of UniProt Q9P2N7 (Q9P2N7 whole entry): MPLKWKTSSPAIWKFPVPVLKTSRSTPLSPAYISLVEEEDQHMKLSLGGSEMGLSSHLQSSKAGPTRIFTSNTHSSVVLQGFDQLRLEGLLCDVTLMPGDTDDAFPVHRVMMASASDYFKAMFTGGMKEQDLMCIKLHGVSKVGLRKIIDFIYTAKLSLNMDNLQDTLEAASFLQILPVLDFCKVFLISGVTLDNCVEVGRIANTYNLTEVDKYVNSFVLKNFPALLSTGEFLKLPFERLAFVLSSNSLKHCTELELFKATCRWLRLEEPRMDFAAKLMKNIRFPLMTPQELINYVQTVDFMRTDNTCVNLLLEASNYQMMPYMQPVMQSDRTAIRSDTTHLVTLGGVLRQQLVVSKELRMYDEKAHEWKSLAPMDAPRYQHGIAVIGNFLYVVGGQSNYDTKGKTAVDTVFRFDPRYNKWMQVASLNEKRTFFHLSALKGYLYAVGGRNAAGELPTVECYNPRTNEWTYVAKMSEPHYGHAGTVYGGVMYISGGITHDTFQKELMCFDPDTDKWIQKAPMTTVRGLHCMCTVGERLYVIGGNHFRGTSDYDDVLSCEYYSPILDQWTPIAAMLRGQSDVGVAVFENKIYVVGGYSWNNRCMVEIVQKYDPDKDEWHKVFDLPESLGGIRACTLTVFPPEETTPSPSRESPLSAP
- thermal stability z-score (potassium arsenate): 0.825
- thermal stability z-score (lipoamide; [1]): -0.764
- thermal stability z-score (lipoamide; arsenate co-treatment: none): -0.242

Target: KLHL26 (UniProt Q53HC5)
- thermal stability z-score (potassium arsenate): -0.108
- thermal stability z-score (lipoamide; [1]): -0.138
- thermal stability z-score (lipoamide; arsenate co-treatment: none): -0.165

Target: KLHL42 (UniProt Q9P2K6)
- thermal stability z-score (potassium arsenate): -0.142
- thermal stability z-score (lipoamide; [1]): -0.26
- thermal stability z-score (lipoamide; arsenate co-treatment: none): -0.0102

Target: KMT2D (UniProt O14686)
- thermal stability z-score (potassium arsenate): -0.661
- thermal stability z-score (lipoamide; [1]): -0.298
- thermal stability z-score (lipoamide; arsenate co-treatment: none): -0.455

Target: KNOP1 (UniProt Q1ED39)
- thermal stability z-score (potassium arsenate): 0.831
- thermal stability z-score (lipoamide; [1]): 0.735
- thermal stability z-score (lipoamide; arsenate co-treatment: none): -0.755

Target: KNSTRN (UniProt Q9Y448)
Sequence of UniProt Q9Y448 (Q9Y448 whole entry): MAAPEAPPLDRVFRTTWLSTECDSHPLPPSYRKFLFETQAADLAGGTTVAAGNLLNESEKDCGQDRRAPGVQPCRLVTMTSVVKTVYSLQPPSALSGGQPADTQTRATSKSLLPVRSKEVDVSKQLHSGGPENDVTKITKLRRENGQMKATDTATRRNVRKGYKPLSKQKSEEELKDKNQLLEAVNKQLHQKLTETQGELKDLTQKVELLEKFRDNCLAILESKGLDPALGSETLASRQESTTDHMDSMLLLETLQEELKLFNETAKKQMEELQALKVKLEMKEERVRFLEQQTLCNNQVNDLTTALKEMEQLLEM
- thermal stability z-score (potassium arsenate): 1.36
- thermal stability z-score (lipoamide; [1]): -0.729
- thermal stability z-score (lipoamide; arsenate co-treatment: none): -0.171

Target: KNTC1 (UniProt P50748)
- thermal stability z-score (potassium arsenate): 0.572
- thermal stability z-score (lipoamide; [1]): -0.59
- thermal stability z-score (lipoamide; arsenate co-treatment: none): -0.253

Target: KPNA1 (UniProt P52294)
Sequence of UniProt P52294 (P52294 whole entry): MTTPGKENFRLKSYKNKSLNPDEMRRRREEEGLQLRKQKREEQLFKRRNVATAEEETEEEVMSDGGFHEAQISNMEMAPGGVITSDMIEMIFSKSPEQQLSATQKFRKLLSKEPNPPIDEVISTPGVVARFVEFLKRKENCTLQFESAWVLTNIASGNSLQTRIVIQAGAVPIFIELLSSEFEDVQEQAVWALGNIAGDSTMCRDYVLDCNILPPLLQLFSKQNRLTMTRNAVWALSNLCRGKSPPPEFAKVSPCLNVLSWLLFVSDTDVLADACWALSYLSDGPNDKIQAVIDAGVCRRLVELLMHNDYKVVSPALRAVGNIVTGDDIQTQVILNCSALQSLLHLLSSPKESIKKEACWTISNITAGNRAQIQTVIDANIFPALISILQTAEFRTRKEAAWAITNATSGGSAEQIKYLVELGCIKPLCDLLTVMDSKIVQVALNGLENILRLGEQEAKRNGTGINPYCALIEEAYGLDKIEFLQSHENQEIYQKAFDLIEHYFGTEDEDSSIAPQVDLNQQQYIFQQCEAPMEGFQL
- thermal stability z-score (potassium arsenate): 0.239
- thermal stability z-score (lipoamide; [1]): -0.0607
- thermal stability z-score (lipoamide; arsenate co-treatment: none): -0.0226

Target: KPNA2 (UniProt P52292)
- thermal stability z-score (potassium arsenate): -0.353
- thermal stability z-score (lipoamide; [1]): 0.22
- thermal stability z-score (lipoamide; arsenate co-treatment: none): -0.118

Target: KPNA3 (UniProt O00505)
- thermal stability z-score (potassium arsenate): -0.288
- thermal stability z-score (lipoamide; [1]): -1.01
- thermal stability z-score (lipoamide; arsenate co-treatment: none): -0.146

Target: KPNA4 (UniProt O00629)
- thermal stability z-score (potassium arsenate): 0.399
- thermal stability z-score (lipoamide; [1]): 0.791
- thermal stability z-score (lipoamide; arsenate co-treatment: none): 0.48

Target: KPNA6 (UniProt O60684)
- thermal stability z-score (potassium arsenate): 0.446
- thermal stability z-score (lipoamide; [1]): -0.328
- thermal stability z-score (lipoamide; arsenate co-treatment: none): -0.314

Target: KPNB1 (UniProt Q14974)
- thermal stability z-score (potassium arsenate): 0.0471
- thermal stability z-score (lipoamide; [1]): -0.211
- thermal stability z-score (lipoamide; arsenate co-treatment: none): 0.374

Target: KRAS (UniProt P01116)
- thermal stability z-score (potassium arsenate): 0.184
- thermal stability z-score (lipoamide; [1]): 0.168
- thermal stability z-score (lipoamide; arsenate co-treatment: none): 0.186

Target: KRI1 (UniProt Q8N9T8)
- thermal stability z-score (potassium arsenate): -0.376
- thermal stability z-score (lipoamide; [1]): 0.198
- thermal stability z-score (lipoamide; arsenate co-treatment: none): -0.118

Target: KRR1 (UniProt Q13601)
- thermal stability z-score (potassium arsenate): -0.512
- thermal stability z-score (lipoamide; [1]): -0.00732
- thermal stability z-score (lipoamide; arsenate co-treatment: none): 0.0711

Target: KTI12 (UniProt Q96EK9)
- thermal stability z-score (potassium arsenate): -0.224
- thermal stability z-score (lipoamide; [1]): 0.014
- thermal stability z-score (lipoamide; arsenate co-treatment: none): -0.222

Target: KTN1 (UniProt Q86UP2)
- thermal stability z-score (potassium arsenate): 0.294
- thermal stability z-score (lipoamide; [1]): 0.265
- thermal stability z-score (lipoamide; arsenate co-treatment: none): 0.505

Target: KXD1 (UniProt Q9BQD3)
Sequence of UniProt Q9BQD3 (Q9BQD3 whole entry): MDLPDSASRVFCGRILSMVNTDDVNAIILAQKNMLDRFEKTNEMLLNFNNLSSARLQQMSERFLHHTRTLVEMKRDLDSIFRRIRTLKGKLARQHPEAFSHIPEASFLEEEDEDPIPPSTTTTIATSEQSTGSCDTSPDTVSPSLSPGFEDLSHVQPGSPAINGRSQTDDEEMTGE
- thermal stability z-score (potassium arsenate): 0.28
- thermal stability z-score (lipoamide; [1]): 0.543
- thermal stability z-score (lipoamide; arsenate co-treatment: none): 0.711

Target: KYAT3 (UniProt Q6YP21)
- thermal stability z-score (potassium arsenate): -0.182
- thermal stability z-score (lipoamide; [1]): -0.0731
- thermal stability z-score (lipoamide; arsenate co-treatment: none): 0.185

Target: KYNU (UniProt Q16719)
Sequence of UniProt Q16719 (Q16719 whole entry): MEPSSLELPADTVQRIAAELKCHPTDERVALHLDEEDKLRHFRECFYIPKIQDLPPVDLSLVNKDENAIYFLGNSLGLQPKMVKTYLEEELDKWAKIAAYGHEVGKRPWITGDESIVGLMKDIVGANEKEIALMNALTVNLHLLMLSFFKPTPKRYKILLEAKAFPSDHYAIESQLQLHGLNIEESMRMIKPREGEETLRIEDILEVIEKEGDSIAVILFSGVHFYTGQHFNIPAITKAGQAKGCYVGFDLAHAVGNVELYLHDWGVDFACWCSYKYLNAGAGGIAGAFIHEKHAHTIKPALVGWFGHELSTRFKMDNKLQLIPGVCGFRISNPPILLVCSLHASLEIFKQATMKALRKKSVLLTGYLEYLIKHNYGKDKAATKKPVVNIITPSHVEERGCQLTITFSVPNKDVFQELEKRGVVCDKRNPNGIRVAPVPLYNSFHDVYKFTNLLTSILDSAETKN
- thermal stability z-score (potassium arsenate): 0.0266
- thermal stability z-score (lipoamide; [1]): 0.77
- thermal stability z-score (lipoamide; arsenate co-treatment: none): 0.403

Target: L1CAM (UniProt P32004)
- thermal stability z-score (potassium arsenate): -0.0837
- thermal stability z-score (lipoamide; [1]): 0.0694
- thermal stability z-score (lipoamide; arsenate co-treatment: none): -0.375

Target: L2HGDH (UniProt Q9H9P8)
Sequence of UniProt Q9H9P8 (Q9H9P8 whole entry): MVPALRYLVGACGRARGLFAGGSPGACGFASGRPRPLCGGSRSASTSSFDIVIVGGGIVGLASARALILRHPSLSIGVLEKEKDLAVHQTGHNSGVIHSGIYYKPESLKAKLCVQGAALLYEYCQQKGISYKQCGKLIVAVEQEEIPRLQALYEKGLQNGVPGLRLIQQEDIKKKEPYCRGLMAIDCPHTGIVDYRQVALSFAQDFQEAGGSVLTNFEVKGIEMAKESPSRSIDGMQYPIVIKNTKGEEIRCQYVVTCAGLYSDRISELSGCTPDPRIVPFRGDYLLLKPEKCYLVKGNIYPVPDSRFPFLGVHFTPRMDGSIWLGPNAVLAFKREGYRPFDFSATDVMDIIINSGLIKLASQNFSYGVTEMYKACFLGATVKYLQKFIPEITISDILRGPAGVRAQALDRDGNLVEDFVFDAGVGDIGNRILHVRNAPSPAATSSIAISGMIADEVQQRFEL
- thermal stability z-score (potassium arsenate): 0.523
- thermal stability z-score (lipoamide; [1]): -0.736
- thermal stability z-score (lipoamide; arsenate co-treatment: none): -0.362

Target: LACE1 (UniProt Q8WV93)
Sequence of UniProt Q8WV93 (Q8WV93 whole entry): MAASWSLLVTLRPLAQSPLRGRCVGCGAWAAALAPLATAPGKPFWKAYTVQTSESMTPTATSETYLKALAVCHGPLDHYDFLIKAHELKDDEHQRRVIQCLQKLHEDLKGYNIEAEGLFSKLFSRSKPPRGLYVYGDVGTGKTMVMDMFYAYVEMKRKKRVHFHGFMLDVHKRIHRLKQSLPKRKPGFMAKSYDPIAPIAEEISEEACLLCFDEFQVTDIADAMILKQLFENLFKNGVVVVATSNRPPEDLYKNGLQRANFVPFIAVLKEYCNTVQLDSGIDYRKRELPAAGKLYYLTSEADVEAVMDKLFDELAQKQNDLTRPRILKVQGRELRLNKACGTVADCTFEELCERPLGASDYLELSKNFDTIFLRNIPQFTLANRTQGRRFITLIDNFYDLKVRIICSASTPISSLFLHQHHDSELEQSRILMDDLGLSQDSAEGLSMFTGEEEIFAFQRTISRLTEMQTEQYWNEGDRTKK
- thermal stability z-score (potassium arsenate): -0.0299
- thermal stability z-score (lipoamide; [1]): 0.0464
- thermal stability z-score (lipoamide; arsenate co-treatment: none): 0.0601

Target: LACTB2 (UniProt Q53H82)
- thermal stability z-score (potassium arsenate): -0.335
- thermal stability z-score (lipoamide; [1]): -0.112
- thermal stability z-score (lipoamide; arsenate co-treatment: none): -0.0753

Target: LACTB (UniProt P83111)
- thermal stability z-score (potassium arsenate): -0.604
- thermal stability z-score (lipoamide; [1]): -0.437
- thermal stability z-score (lipoamide; arsenate co-treatment: none): -0.129

Target: LAMA1 (UniProt P25391)
- thermal stability z-score (potassium arsenate): 1.13
- thermal stability z-score (lipoamide; [1]): -2
- thermal stability z-score (lipoamide; arsenate co-treatment: none): -1.82

Target: LAMA3 (UniProt Q16787)
- thermal stability z-score (potassium arsenate): 0.34
- thermal stability z-score (lipoamide; [1]): 0.341
- thermal stability z-score (lipoamide; arsenate co-treatment: none): -0.204

Source: the supplement of paper PMC12463676, “Small-molecule dissolution of stress granules by redox modulation benefits ALS models” (Nature Chemical Biology, 2025)
